Drawing on patent US12576087B2, “Aryloxypiperidine pyrazole compounds as indoleamine 2,3-dioxygenase inhibitors” (Merck Sharp & Dohme LLC, priority 2018, dated 2026), this text covers IC50 for 22 molecules.

In this experiment the target is IDO1 (Homo sapiens, UniProt P14902). The experiment is described as follows: IDO1 Human Whole Blood Assay. The class given is cell-based. As to conditions: WBLD taken as whole blood; read-out: WBLD IC50. As to the method: Compounds to be tested were serially diluted in ten 3-fold steps in DMSO starting from 10 mM. 3 μL of compound dilutions or DMSO alone were then dispensed from the dilution plate into a polypropylene 96-well assay plate containing 97 μL of RPMI medium using an Echo 555 acoustic liquid handler (Labcyte). LPS and IFNγ was prepared in RPMI medium to a 10× of final conc. (1000 ng/mL), final concentration is 100 ng/mL.
Chain of IDO1 (P14902 whole entry): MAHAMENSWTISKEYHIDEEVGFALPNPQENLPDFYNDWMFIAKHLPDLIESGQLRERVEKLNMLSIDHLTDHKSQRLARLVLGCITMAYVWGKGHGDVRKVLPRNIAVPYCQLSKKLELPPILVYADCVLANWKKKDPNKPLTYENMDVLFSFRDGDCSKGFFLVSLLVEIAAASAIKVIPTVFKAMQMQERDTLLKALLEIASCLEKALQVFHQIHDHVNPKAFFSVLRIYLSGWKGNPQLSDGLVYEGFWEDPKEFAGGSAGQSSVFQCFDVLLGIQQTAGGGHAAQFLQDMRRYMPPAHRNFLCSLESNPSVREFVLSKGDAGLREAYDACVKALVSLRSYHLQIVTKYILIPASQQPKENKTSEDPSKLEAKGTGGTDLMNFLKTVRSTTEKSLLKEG
Human whole blood was drawn in sodium heparin coated tubes from healthy internal donors. 240 μL of blood was transferred to each of the wells of a v-bottom 96 well plate. 30 μL of compound was transferred from intermediate dilution plate, and incubated for 15 min. 30 μL from stimulants was then transferred to blood and mixed thoroughly. Plate was covered with breathable membrane and incubated at 37° C. for overnight (18 h).
On day 2, isotope labeled standard solutions of kunurenine and tryptophan was made in water at 10× concentration and 30 μL was added to the blood at 3 μM final concentration. The assay plates were centrifuged at 300×G for 10 min with no brake to separate plasma from red blood cells. 60 μL of plasma samples was removed without disturbing red blood cells. Plasma was diluted with RPMI in 1:1 ratio and proteins were precipitated out with two volumes of Acetonitrile. The plates were centrifuged at 4000×G for 60 min. 20 μL of supernatant was carefully transferred to a 384 well plate containing 40 μL of 0.1% formic acid in water and analyzed by LC/MS/MS.
LC/MS/MS analyses were performed using Thermo Fisher's LX4-TSQ Quantum Ultra system. This system consists of four Agilent binary high-performance liquid chromatography (HPLC) pumps and a TSQ Quantum Ultra triple quadrupole MS/MS instrument. For each sample, 5 μL were injected onto an Atlantis T3 column (2.1 mm×150 mm, 3 μm particle size) from Waters. The mobile phase gradient pumped at 0.8 mL/min was used to elute the analytes from the column at 25° C. The elution started at 0% B increasing linearly to 25% B at 6.5 min, holding at 25% for 1 min, re-equilibrating to 10 min. Mobile phase A consisted of 0.1% formic acid in water. Mobile phase B consisted of 0.1% of formic acid in acetonitrile. Data were acquired in positive mode using a HESI interface. The operational parameters for the TSQ Quantum Ultra instrument were a spray voltage of 4000 V, capillary temperature of 380° C., vaporizer temperature 400° C., shealth gas 60 arbitrary units, Aux gas 20 arbitrary units, tube lens 85 and collision gas 1.2 mTorr. SRM chromatograms of kynurenine (Q1: 209.2>Q3:94.0) and internal standard (Q1: 215.3>Q3:98.2) were collected for 90 sec. The peak area was integrated by Xcalibur Quan software. The ratios between the kynurenine generated in the reaction and 2D6-Kynurenine spiked-in internal standard were used to generate percentage inhibition and IC50 values. Compounds were titrated and IC50's were calculated by 4 parameter sigmoidal curve fitting formula.
As for `O=C(CO)N1CCN(C(=O)c2nn(CC(=O)N3CCC(Oc4ccccc4Cl)C4CC43)c3c2[C@@H]2C[C@@H]2C3)CC1` (single isomer, unassigned) [Example 170], the half-maximal inhibitory concentration (IC50) (commonly the concentration that inhibits the measured activity by half) stood at 102 nM.

In the case of `C[C@@H]1CN(C(=O)c2nn(CC(=O)N3CCC(Oc4ccc(Cl)c5c4CCC5)CC3)c3c2CCC3)C[C@H](C)O1` [Example 129, 1-{4-[(7-chloro-2,3-dihydro-1H-inden-4-yl)oxy]piperidin-1-yl}-2-{3-[(2R,6S)-2,6-dimethylmorpholine-4-carbonyl]-5,6-dihydrocyclopenta[c]pyrazol-1(4H)-yl}ethan-1-one], the IC50 amounted to 3320 nM.

Turning to `Cc1ccccc1OC1CCN(C(=O)Cn2nc(C(=O)N3CCC(O)CC3)c3c2C[C@H]2C[C@@H]32)CC1` [Example 21, 2-((3bR,4aR)-3-(4-hydroxypiperidine-1-carbonyl)-3b,4,4a,5-tetrahydro-1H-cyclopropa[3,4]cyclopenta[1,2-c]pyrazol-1-yl)-1-(4-(o-tolyloxy)piperidin-1-yl)ethanone], the IC50 amounted to 40.2 nM.

For the molecule `Cc1cc(F)ccc1OC1CCN(C(=O)Cn2nc(C(=O)N3CCC(OCCO)CC3)c3c2CCCC3)CC1` [Example 76, 1-[4-(4-fluoro-2-methyl-phenoxy)-1-piperidyl]-2-[3-[4-(2-hydroxyethoxy)piperidine-1-carbonyl]-4,5,6,7-tetrahydroindazol-1-yl]ethanone], the 50% inhibitory concentration (IC50) was 59.8 nM.

Take `C[C@@H]1C[C@H](Oc2ccccc2Cl)CCN1C(=O)Cn1nc(C(=O)N2CCN(C(=O)CO)CC2)c2c1C[C@H]1C[C@@H]21` [Example 4, 1-((2R,4R)-4-(2-chlorophenoxy)-2-methylpiperidin-1-yl)-2-((3bR,4aR)-3-(4-(2-hydroxyacetyl)piperazine-1-carbonyl)-3b,4,4a,5-tetrahydro-1H-cyclopropa[3,4]cyclopenta[1,2-c]pyrazol-1-yl)ethanone]: the half-maximal inhibitory concentration (IC50) amounted to 315 nM.

On to `Cc1ccccc1OC1CCN(C(=O)Cn2nc(C(=O)N3CC[C@H](O)C[C@@H]3C)c3c2CCCC3)CC1` [Example 17, 2-(3-((2S,4S)-4-hydroxy-2-methylpiperidine-1-carbonyl)-4,5,6,7-tetrahydro-1H-indazol-1-yl)-1-(4-(o-tolyloxy)piperidin-1-yl)ethanone], for which the half-maximal inhibitory concentration (IC50) amounted to 114 nM.

On to `Cc1cc(F)ccc1OC1CCN(C(=O)Cn2nc(C(=O)N3CCN(C(=O)CO)CC3)c3c2CCCC3)CC1` [Example 79, 1-[4-(4-fluoro-2-methyl-phenoxy)-1-piperidyl]-2-[3-[4-(2-hydroxyacetyl)piperazine-1-carbonyl]-4,5,6,7-tetrahydroindazol-1-yl]ethanone], for which the 50% inhibitory concentration (IC50) turned out to be 140 nM.

Consider `Cc1ccccc1OC1CCN(C(=O)Cn2nc(C(=O)N3CC[C@H](O)[C@@H](F)C3)c3c2CCCC3)CC1` [Example 23, 2-(3-((3S,4S)-3-fluoro-4-hydroxypiperidine-1-carbonyl)-4,5,6,7-tetrahydro-1H-indazol-1-yl)-1-(4-(o-tolyloxy)piperidin-1-yl)ethanone], for which the IC50 was determined as 22.9 nM.

In the case of `Cc1ccccc1OC1CCN(C(=O)Cn2nc(C(=O)N3CC[C@H](O)[C@H](F)C3)c3c2C[C@H]2C[C@@H]32)CC1` [Example 16, 2-((3bR,4aR)-3-((3R,4S)-3-fluoro-4-hydroxypiperidine-1-carbonyl)-3b,4,4a,5-tetrahydro-1H-cyclopropa[3,4]cyclopenta[1,2-c]pyrazol-1-yl)-1-(4-(o-tolyloxy)piperidin-1-yl)ethanone], the IC50 amounted to 46.7 nM.

Turning to `Cc1ccccc1OC1CCN(C(=O)Cn2nc(C(=O)N3CCC(OCCO)CC3)c3c2CCCC3)CC1` [Example 20, 2-(3-(4-(2-hydroxyethoxy)piperidine-1-carbonyl)-4,5,6,7-tetrahydro-1H-indazol-1-yl)-1-(4-(o-tolyloxy)piperidin-1-yl)ethanone], the IC50 was determined as 20 nM.

Consider `Cc1ccc(F)cc1OC1CCN(C(=O)Cn2nc(C(=O)N3C[C@@H](C)O[C@@H](C)C3)c3c2CCC3)CC1` [Example 135, 2-[3-(2,6-dimethylmorpholine-4-carbonyl)-5,6-dihydrocyclopenta[c]pyrazol-1(4H)-yl]-1-[4-(5-fluoro-2-methylphenoxy)piperidin-1-yl]ethan-1-one], for which the IC50 was found to be 112 nM.

For the molecule `Cc1cccc(F)c1OC1CCN(C(=O)Cn2nc(C(=O)N3C[C@@H](C)O[C@@H](C)C3)c3c2CCC3)CC1` [Example 138, 2-{3-[(2R,6S)-2,6-dimethylmorpholine-4-carbonyl]-5,6-dihydrocyclopenta[c]pyrazol-1(4H)-yl}-1-[4-(2-fluoro-6-methylphenoxy)piperidin-1-yl]ethan-1-one], the half-inhibitory concentration (IC50) came out at 241 nM.

Turning to `Cc1cc(F)ccc1OC1CCN(C(=O)Cn2nc(C(=O)N3CCO[C@H](CO)C3)c3c2CCCC3)CC1` [Example 81, 1-[4-(4-fluoro-2-methyl-phenoxy)-1-piperidyl]-2-[3-[(2S)-2-(hydroxymethyl)morpholine-4-carbonyl]-4,5,6,7-tetrahydroindazol-1-yl]ethanone], the IC50 stood at 89.8 nM.

With `Cc1ccccc1OC1CCN(C(=O)Cn2nc(C(=O)N3CCC(O)(CF)CC3)c3c2CCCC3)CC1` [Example 26, 2-(3-(4-(fluoromethyl)-4-hydroxypiperidine-1-carbonyl)-4,5,6,7-tetrahydro-1H-indazol-1-yl)-1-(4-(o-tolyloxy)piperidin-1-yl)ethanone], the IC50 worked out at 93.8 nM.

`Cc1ccccc1OC1CCN(C(=O)Cn2nc(C(=O)N3CCC(O)CC3)c3c2CCC3)CC1` [Example 33, 2-(3-(4-hydroxypiperidine-1-carbonyl)-5,6-dihydrocyclopenta[c]pyrazol-1(4H)-yl)-1-(4-(o-tolyloxy)piperidin-1-yl)ethanone]: the IC50 is 85.9 nM.

Consider `Cc1ccccc1OC1CCN(C(=O)Cn2nc(C(=O)N3CCC(O)CC3)c3c2CCCC3)CC1` [Example 18, 2-(3-(4-hydroxypiperidine-1-carbonyl)-4,5,6,7-tetrahydro-1H-indazol-1-yl)-1-(4-(o-tolyloxy)piperidin-1-yl)ethanone], for which the IC50 was found to be 64 nM.

With `Cc1ccccc1OC1CCN(C(=O)Cn2nc(C(=O)N3CCC(O)(CF)CC3)c3c2CCC3)CC1` [Example 35, 2-(3-(4-(fluoromethyl)-4-hydroxypiperidine-1-carbonyl)-5,6-dihydrocyclopenta[c]pyrazol-1(4H)-yl)-1-(4-(o-tolyloxy)piperidin-1-yl)ethanone], the concentration for half-maximal inhibition (IC50) is 140 nM.

With `Cc1ccccc1OC1CCN(C(=O)Cn2nc(C(=O)N3CCN(C(=O)CO)CC3)c3c2C[C@H]2C[C@@H]32)CC1` [Example 2, 2-Hydroxy-1-(4-((3bR,4aR)-1-(2-oxo-2-(4-(o-tolyloxy)piperidin-1-yl)ethyl)-3b,4,4a,5-tetrahydro-1H-cyclopropa[3,4]cyclopenta[1,2-c]pyrazole-3-carbonyl)piperazin-1-yl)ethanone], the IC50 turned out to be 13 nM.

As for `Cc1ccc(F)cc1OC1CCN(C(=O)Cn2nc(C(=O)N3C[C@@H](C)O[C@@H](C)C3)c3c2CCC3)CC1` [Example 90, 2-(3-(cis-2,6-Dimethylmorpholine-4-carbonyl)-5,6-dihydrocyclopenta[c]pyrazol-1(4H)-yl)-1-(4-(5-fluoro-2-methylphenoxy)piperidin-1-yl)ethan-1-one], the concentration for half-maximal inhibition (IC50) came to 142 nM.

On to `Cc1ccccc1OC1CCN(C(=O)Cn2nc(C(=O)N3CCC(O)(C(F)F)CC3)c3c2CCCC3)CC1` [Example 22, 2-(3-(4-(difluoromethyl)-4-hydroxypiperidine-1-carbonyl)-4,5,6,7-tetrahydro-1H-indazol-1-yl)-1-(4-(o-tolyloxy)piperidin-1-yl)ethanone], for which the IC50 amounted to 92.4 nM.

For `Cc1c(F)cccc1OC1CCN(C(=O)Cn2nc(C(=O)N3C[C@@H](C)O[C@@H](C)C3)c3c2CCC3)CC1` [Example 128, 2-{3-[(2R,6S)-2,6-dimethylmorpholine-4-carbonyl]-5,6-dihydrocyclopenta[c]pyrazol-1(4H)-yl}-1-[4-(3-fluoro-2-methylphenoxy)piperidin-1-yl]ethan-1-one], the IC50 stood at 49.2 nM.

For `Cc1ccc(OC2CCN(C(=O)Cn3nc(C(=O)N4C[C@@H](C)O[C@@H](C)C4)c4c3CCC4)CC2)cc1` [Example 95, 2-{3-[(2R,6S)-2,6-dimethylmorpholine-4-carbonyl]-5,6-dihydrocyclopenta[c]pyrazol-1(4H)-yl}-1-[4-(4-methylphenoxy)piperidin-1-yl]ethan-1-one], the IC50 is 360 nM.
